Source: patent US12227495B2, “Herbicidal compounds” (SYNGENTA CROP PROTECTION AG, priority 2018, dated 2025)

Legend:
Type in all cases: in vivo
[1] = test system: Amaranthus retoflexus (AMARE); assay: Post-emergence herbicide test, glasshouse, percentage damage; conditions: 1000 g/ha, evaluated after 13 days
Outline: (§1)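 Spray: acetone/water (50:50) with 0.5% Tween 20, 500 g/ha unless stated; pre-emergence 1 d after sowing, post-emergence at 8 d. Glasshouse 24/16 °C, 14 h light, 65% RH, watered twice daily. Read at 13 d, % damage as 1-5 score.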

[2] = test system: Echinochloa crus-galli (ECHCG); assay: as above; conditions: 1000 g/ha, evaluated after 13 days
Outline: as §1

[3] = test system: Ipomoea hederacea (IPOHE); assay: as above; conditions: 1000 g/ha, evaluated after 13 days
Outline: as §1

Lolium perenne (LOLPE) [4] = assay: as above; conditions: 1000 g/ha, evaluated after 13 days
Outline: as §1

Setaria faberi (SETFA) [5] = assay: as above; conditions: 1000 g/ha, evaluated after 13 days
Outline: as §1

Solanum nigrum (SOLNI) [6] = assay: as above; conditions: 1000 g/ha, evaluated after 13 days
Outline: as §1

[7] = test system: Amaranthus retoflexus (AMARE); assay: Pre-emergence herbicide test, glasshouse, percentage damage; conditions: rate 1000 g/ha, evaluated after 13 days
Outline: as §1

[8] = test system: Echinochloa crus-galli (ECHCG); assay: as above; conditions: rate 1000 g/ha, evaluated after 13 days
Outline: as §1

[9] = test system: Ipomoea hederacea (IPOHE); assay: as above; conditions: rate 1000 g/ha, evaluated after 13 days
Outline: as §1

Lolium perenne (LOLPE) [10] = assay: as above; conditions: rate 1000 g/ha, evaluated after 13 days
Outline: as §1

Setaria faberi (SETFA) [11] = assay: as above; conditions: rate 1000 g/ha, evaluated after 13 days
Outline: as §1

Solanum nigrum (SOLNI) [12] = assay: as above; conditions: rate 1000 g/ha, evaluated after 13 days
Outline: as §1

Fc1cccc(Oc2cccc(Br)c2-c2cc(C(F)F)no2)n1 [Compound A98]
percentage damage caused to the plant, AMARE [1]: 4 (4=61-80%)
percentage damage caused to the plant, ECHCG [2]: 4 (4=61-80%)
percentage damage caused to the plant, IPOHE [3]: 3 (3=41-60%)
percentage damage caused to the plant, LOLPE (Lolium perenne (LOLPE) [4]): 3 (3=41-60%)
percentage damage caused to the plant, SETFA (Setaria faberi (SETFA) [5]): 5 (5=81-100%)
percentage damage caused to the plant, SOLNI (Solanum nigrum (SOLNI) [6]): 4 (4=61-80%)
Pre-emergence Test AMARE percentage damage (five point scale) [7]: 4 (4=61-80%)
Pre-emergence Test ECHCG percentage damage (five point scale) [8]: 5 (5=81-100%)
Pre-emergence Test IPOHE percentage damage (five point scale) [9]: 1 (1=0-20%)
Pre-emergence Test LOLPE percentage damage (five point scale) (Lolium perenne (LOLPE) [10]): 3 (3=41-60%)
Pre-emergence Test SETFA percentage damage (five point scale) (Setaria faberi (SETFA) [11]): 5 (5=81-100%)
Pre-emergence Test SOLNI percentage damage (five point scale) (Solanum nigrum (SOLNI) [12]): 3 (3=41-60%)

FC(F)c1cc(-c2c(Br)cccc2Oc2cc(C(F)(F)F)ccn2)on1 [Compound A99]
percentage damage caused to the plant, AMARE [1]: 5 (5=81-100%)
percentage damage caused to the plant, ECHCG [2]: 4 (4=61-80%)
percentage damage caused to the plant, IPOHE [3]: 2 (2=21-40%)
percentage damage caused to the plant, LOLPE (Lolium perenne (LOLPE) [4]): 3 (3=41-60%)
percentage damage caused to the plant, SETFA (Setaria faberi (SETFA) [5]): 4 (4=61-80%)
percentage damage caused to the plant, SOLNI (Solanum nigrum (SOLNI) [6]): 4 (4=61-80%)
Pre-emergence Test AMARE percentage damage (five point scale) [7]: 5 (5=81-100%)
Pre-emergence Test ECHCG percentage damage (five point scale) [8]: 4 (4=61-80%)
Pre-emergence Test IPOHE percentage damage (five point scale) [9]: 1 (1=0-20%)
Pre-emergence Test LOLPE percentage damage (five point scale) (Lolium perenne (LOLPE) [10]): 3 (3=41-60%)
Pre-emergence Test SETFA percentage damage (five point scale) (Setaria faberi (SETFA) [11]): 4 (4=61-80%)
Pre-emergence Test SOLNI percentage damage (five point scale) (Solanum nigrum (SOLNI) [12]): 1 (1=0-20%)

Fc1cnc(Oc2cccc(Br)c2-c2cc(C(F)F)no2)c(F)c1 [Compound A101]
percentage damage caused to the plant, AMARE [1]: 5 (5=81-100%)
percentage damage caused to the plant, ECHCG [2]: 4 (4=61-80%)
percentage damage caused to the plant, IPOHE [3]: 5 (5=81-100%)
percentage damage caused to the plant, LOLPE (Lolium perenne (LOLPE) [4]): 4 (4=61-80%)
percentage damage caused to the plant, SETFA (Setaria faberi (SETFA) [5]): 5 (5=81-100%)
percentage damage caused to the plant, SOLNI (Solanum nigrum (SOLNI) [6]): 5 (5=81-100%)
Pre-emergence Test AMARE percentage damage (five point scale) [7]: 5 (5=81-100%)
Pre-emergence Test ECHCG percentage damage (five point scale) [8]: 5 (5=81-100%)
Pre-emergence Test IPOHE percentage damage (five point scale) [9]: 5 (5=81-100%)
Pre-emergence Test LOLPE percentage damage (five point scale) (Lolium perenne (LOLPE) [10]): 5 (5=81-100%)
Pre-emergence Test SETFA percentage damage (five point scale) (Setaria faberi (SETFA) [11]): 5 (5=81-100%)
Pre-emergence Test SOLNI percentage damage (five point scale) (Solanum nigrum (SOLNI) [12]): 4 (4=61-80%)

N#Cc1ccc(Oc2cccc(Br)c2-c2cc(C(F)F)no2)nc1 [Compound A102]
percentage damage caused to the plant, AMARE [1]: 5 (5=81-100%)
percentage damage caused to the plant, ECHCG [2]: 4 (4=61-80%)
percentage damage caused to the plant, IPOHE [3]: 5 (5=81-100%)
percentage damage caused to the plant, LOLPE (Lolium perenne (LOLPE) [4]): 4 (4=61-80%)
percentage damage caused to the plant, SETFA (Setaria faberi (SETFA) [5]): 5 (5=81-100%)
percentage damage caused to the plant, SOLNI (Solanum nigrum (SOLNI) [6]): 5 (5=81-100%)
Pre-emergence Test AMARE percentage damage (five point scale) [7]: 5 (5=81-100%)
Pre-emergence Test ECHCG percentage damage (five point scale) [8]: 5 (5=81-100%)
Pre-emergence Test IPOHE percentage damage (five point scale) [9]: 4 (4=61-80%)
Pre-emergence Test LOLPE percentage damage (five point scale) (Lolium perenne (LOLPE) [10]): 5 (5=81-100%)
Pre-emergence Test SETFA percentage damage (five point scale) (Setaria faberi (SETFA) [11]): 5 (5=81-100%)
Pre-emergence Test SOLNI percentage damage (five point scale) (Solanum nigrum (SOLNI) [12]): 4 (4=61-80%)

Fc1cc(Br)cnc1Oc1cccc(Br)c1-c1cc(C(F)F)no1 [Compound A103]
percentage damage caused to the plant, AMARE [1]: 5 (5=81-100%)
percentage damage caused to the plant, ECHCG [2]: 4 (4=61-80%)
percentage damage caused to the plant, IPOHE [3]: 5 (5=81-100%)
percentage damage caused to the plant, LOLPE (Lolium perenne (LOLPE) [4]): 5 (5=81-100%)
percentage damage caused to the plant, SETFA (Setaria faberi (SETFA) [5]): 5 (5=81-100%)
percentage damage caused to the plant, SOLNI (Solanum nigrum (SOLNI) [6]): 5 (5=81-100%)
Pre-emergence Test AMARE percentage damage (five point scale) [7]: 5 (5=81-100%)
Pre-emergence Test ECHCG percentage damage (five point scale) [8]: 5 (5=81-100%)
Pre-emergence Test IPOHE percentage damage (five point scale) [9]: 5 (5=81-100%)
Pre-emergence Test LOLPE percentage damage (five point scale) (Lolium perenne (LOLPE) [10]): 5 (5=81-100%)
Pre-emergence Test SETFA percentage damage (five point scale) (Setaria faberi (SETFA) [11]): 5 (5=81-100%)
Pre-emergence Test SOLNI percentage damage (five point scale) (Solanum nigrum (SOLNI) [12]): 3 (3=41-60%)
